Measured values as given in US11352392B2, “Artificially synthesized peptide H-473 and use thereof” (CHINA WEST NORMAL UNIVERSITY, priority 2018, dated 2022).
Ends that are not written are not given here.

Legend:
asthma in mice = experiment: Effect on asthma in mice (OVA sensitization, BALF cell count); format: in vivo, BALB/C mice; conditions: dexamethasone 1 mg/kg intramuscular, 7 d
Method: At day 35 of the experiment, the test samples were respectively given one hour prior to OVA atomization.
5.6.1 Asthma model: mice were injected intraperitoneally with 0.2 ml of a sensitizing solution (ovalbumin OVA 80 μg+ Adjuvant liquid aluminum 0.1 ml) twice on days 0 and 14. From day 24 after the first sensitization, 2.5% OVA was aerosolized and inhaled for 45 min once daily for 18 days.
5.6.2 Administration: the corresponding test sample was given 1 h before the OVA solution atomization challenge since day 35 of the experiment. H-473 15 μg/kg group and H-473 30 μg/kg group were injected intramuscularly, respectively. The positive control group was injected with dexamethasone 1 mg/kg intramuscularly. Normal control group and model control group were injected with saline intramuscularly.
General global observations: respiratory rate, whether there was dyspnea, cyanosis, dysphoria and convulsion.
Bronchoalveolar lavage fluid (BALF) cells were counted and classified (EOS ratio elevated or not).

cfpac-1 xenograft tumors = experiment: Pharmacodynamic experiment on cfpac-1 xenograft tumor in nude mice; format: in vivo, BALB/c nude mice; conditions: cfpac-1 xenograft nude mice; H-473 1 μg/kg or Interleukin-2 200,000 IU/kg, tail vein, once a day for 10 times
Method: (§1) Model control group: physiological saline, 0.1 ml/10 g, once a day for 10 times.
The cultured cfpac-1 cell suspension was collected at a concentration of 1×10^7 cells/ml and inoculated subcutaneously in the right axilla of nude mice, 0.1 ml/mouse.
Diameters of the xenograft tumors in nude mice were measured with a vernier caliper. 17 days after inoculation, the animals were randomized into groups with 8 in each group when the tumors grew to 100-150 mm^3. At the same time, each group of nude mice began to be dosed. […] The anti-tumor effect of the test sample was dynamically observed by using a method of measuring tumor diameter. […]
(§2) Tumor volume (TV) was calculated according to the following formula: TV=½×a×b^2, wherein, a and b represent length and width, respectively.
(§3) Relative tumor volume (RTV) was calculated according to the measured results according to the following formula: RTV=Vt/V0, wherein, V0 is tumor volume measured when the animals are divided into cages and dosed (i.e., d0) and Vt is tumor volume at each measurement.
(§4) Evaluation indicator of anti-tumor activity: relative tumor proliferation rate T/C (%) was calculated according to the following formula:
(§5) Evaluation indicator of antitumor activity: tumor growth inhibition rate (%) was calculated according to the following formula: […]

MGC-803 xenograft tumors = experiment: Pharmacodynamic experiment on human gastric cancer MGC-803 xenograft tumor in nude mice; format: in vivo, BALB/c nude mice; conditions: MGC-803 xenograft nude mice; H-473 1 μg/kg or Interleukin-2 200,000 IU/kg, tail vein, once a day for 10 times
Method: as §1
The cultured MGC-803 cell suspension was collected at a concentration of 1×10^7 cells/ml and inoculated subcutaneously in the right axilla of nude mice, 0.1 ml/mouse.
Diameters of the xenograft tumors in nude mice were measured with a vernier caliper. 8 days after inoculation, the animals were randomized into groups with 8 in each group when the tumors grew to 100-150 mm^3. At the same time, each group of nude mice began to be dosed. […] The anti-tumor effect of the test sample was dynamically observed by using a method of measuring tumor diameter. […]
as §2, §3, §4, §5

Compound | BALF ESO (asthma in mice) | BALF ESO % (asthma in mice) [%] | BALF WBC (asthma in mice) | Body weight of animals At sacrifice (cfpac-1 xenograft tumors) [g] | Body weight of animals At sacrifice (MGC-803 xenograft tumors) [g]
C[C@@H]1C[C@H]2[C@@H]3CCC4=CC(=O)C=C[C@]4(C)[C@@]3(F)[C@@H](O)C[C@]2(C)[C@@]1(O)C(=O)CO [Positive control, dexamethasone] | 0.15 ± 0.05^## 10^9/L | 3.75 ± 0.83 | 3.8 ± 0.5^## 10^9/L | – | –
RGLRGLR [H-473, RGLRGLR] | – | – | – | 22.91 ± 1.12 | 22.80 ± 0.97
